Reference: article PMC5998037, “Glutamine 89 is a key residue in the allosteric modulation of human serine racemase activity by ATP” (Scientific Reports, 2018)
Positions count from the first letter of the chain named. “And” between values parts separate entries of the source, which are not always exact repeats. Equal entries are not always repeated. Where two headings read alike, the source gives them in different places.

What was measured:
Q89M-hSR [1] = molecular target: T1, Q89M-hSR (Homo sapiens, UniProt Q9GZT4, Q89M); assay: Fluorimetric titrations (PLP fluorescence emission); format: binding
T1 construct: hexa-His; made in house; host or cells: E. coli BL21 CodonPlus (DE3)-RIL with GroEL/GroES
T1 sequence (Q9GZT4 1-340 Q89M): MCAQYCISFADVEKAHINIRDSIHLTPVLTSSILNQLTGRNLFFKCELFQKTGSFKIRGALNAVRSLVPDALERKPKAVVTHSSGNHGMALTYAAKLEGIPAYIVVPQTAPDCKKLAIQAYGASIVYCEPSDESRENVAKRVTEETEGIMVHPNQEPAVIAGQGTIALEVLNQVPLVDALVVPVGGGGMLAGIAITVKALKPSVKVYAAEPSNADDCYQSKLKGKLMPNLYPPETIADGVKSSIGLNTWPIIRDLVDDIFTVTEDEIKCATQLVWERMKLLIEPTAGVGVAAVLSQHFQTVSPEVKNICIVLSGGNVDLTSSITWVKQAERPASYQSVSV
Method: Fluorescence emission spectra upon excitation at 412 nm were collected using a FluoroMax-3 fluorometer (HORIBA Jobin Yvon, Kyoto, Japan) at 20.0 ± 0.5 °C. […] Binding of either glycine or ATP was measured by direct titrations of the protein solution in the range 0–1.2 mM and 0–1.0 mM, respectively. […] Spectra were corrected for buffer contribution. Far-UV circular dichroism spectra (195–260 nm) were collected using a JASCO J-715 spectropolarimeter (Easton, MD, USA). […] Each spectrum is the average of three independent measurements.
(§1) The fluorescence emission intensity was collected at 480 nm for glycine titration, at 492 nm for ATP titration and at 478 nm for ATP titration in the presence of glycine. The kinetic parameters were calculated using the Michaelis –Menten equation:3 v0=Vmax⋅[S]/Km+[S] where v0 is the initial enzymatic rate, Vmax is the rate at substrate saturation, Km is the Michaelis constant and [S] is the substrate concentration.

hSR [2] = molecular target: T2, hSR (Homo sapiens, UniProt Q9GZT4); parameters: method as in PMID 23992455; settings: cited from earlier work; for Kd: hSR
T2 construct: His tag; made in house; host or cells: Escherichia coli (co-expressed with chaperones)
T2 sequence (Q9GZT4 1-340): T1 sequence (Q9GZT4 1-340 Q89M) with M89Q

hSR [3] = molecular target: T2, hSR; assay: D-Ser dehydration (LDH-coupled assay); format: biochemical; settings: D-Ser dehydration by hSR
Method: (§2) The initial velocity of L-serine dehydration by hSR was monitored by a coupled assay with lactate dehydrogenase (LDH)[5] as previously reported. Nicotinamide adenine dinucleotide (NADH) consumption was followed at 340 nm using a Varian Cary4000 spectrophotometer. The assay solution in buffer A contained 5 mM DTT, 30 U/ml LDH and 300 μM NADH. The concentration of magnesium used in the assay was always higher than or equal to the concentration of ATP. If not otherwise stated, it was set to 2 mM. The protein concentration used in the assay for L-Ser dehydration was 0.4 and 1.6 μM in the presence and absence of 2 mM ATP, respectively. The concentration used in the assay for D-Ser dehydration was 3.1 and 6.0 μM in the presence and absence of ATP, respectively.
(§3) The half-maximal activation (EC50) caused by ATP binding to hSR was calculated with Eq. (1):1 vi/v0=a⋅[ATP]/EC50+[ATP] where vi is the velocity of the reaction catalysed by the enzyme in presence of a defined ATP concentration, v0 is the velocity of the reaction catalysed by the enzyme in the absence of ATP and a is the difference between the maximum and the basal activity. The dissociation constant (KD) of ligands for hSR calculated by fluorimetric titrations was calculated with Eq. (2):2 y=y0+a⋅[L]/KD+[L] where y is the fluorescence emission intensity, [L] is the ligand concentration, y0 is an offset and a is the amplitude. The fluorescence emission intensity was collected at 480 nm for glycine titration, at 492 nm for ATP titration and at 478 nm for ATP titration in the presence of glycine. The kinetic parameters were calculated using the Michaelis –Menten equation:3 v0=Vmax⋅[S]/Km+[S] where v0 is the initial enzymatic rate, Vmax is the rate at substrate saturation, Km is the Michaelis constant and [S] is the substrate concentration. Catalytic efficiency for the dehydratase activity of Q89A-hSR on D-Ser was calculated at [D-Ser] < Km, where equation (3) becomes v0≅Vmax/Km .

Q89M-hSR [4] = molecular target: T1, Q89M-hSR; assay: Activation of L-Ser dehydratase activity by ATP; format: biochemical
Method: (§4) Nicotinamide adenine dinucleotide (NADH) consumption was followed at 340 nm using a Varian Cary4000 spectrophotometer. The assay solution in buffer A contained 5 mM DTT, 30 U/ml LDH and 300 μM NADH. The concentration of magnesium used in the assay was always higher than or equal to the concentration of ATP. If not otherwise stated, it was set to 2 mM. […] The concentration used in the assay for D-Ser dehydration was 3.1 and 6.0 μM in the presence and absence of ATP, respectively.
as §1

Q89A-hSR [5] = molecular target: T3, Q89A-hSR (Homo sapiens, UniProt Q9GZT4, Q89A); assay: Activation of L-Ser dehydratase activity by ATP; format: biochemical
T3 construct: hexa-His; made in house; host or cells: E. coli BL21 CodonPlus (DE3)-RIL with GroEL/GroES
T3 sequence (Q9GZT4 1-340 Q89A): T1 sequence (Q9GZT4 1-340 Q89M) with M89A
Method: as §4, §1

hSR [6] = molecular target: T2, hSR; parameters: method as in PMID 23992455; settings: wt hSR, cited from earlier work
Q89M-hSR [7] = molecular target: T1, Q89M-hSR; assay: L-Ser racemisation (DAAO-coupled discontinuous assay); format: biochemical; settings: L-Ser racemisation by Q89M-hSR, 2 mM ATP vs absence of nucleotide
Method: (§5) The formation of D-serine as a function of L-serine concentration was determined using a discontinuous assay, based on oxidation of D-serine by the enzyme DAAO (Sigma Aldrich, A5222)[18],[37],[54]. This reaction produces hydrogen peroxide, that is used by the horseradish peroxidase to oxidize o-dianisidine dihydrochloride to form a chromophoric product. After the addition of sulphuric acid to increase the solubility, the concentration of this product can be measured at 550 nm. L-serine at various final concentrations was added to buffer A containing 1.5 µM hSR, in the absence and presence of 2 mM ATP. The reaction mixture was incubated at 37 °C and aliquots were periodically removed to determine D-serine concentration. L-serine was purified from any D-serine contaminations through 48 hours of incubation with 400 U/ml of DAAO and 100 U/ml of catalase, which were subsequently thermally inactivated. Absolute D-serine concentrations were determined using calibrations curves obtained by reacting known D-serine concentrations with DAAO. Absorbance signal was acquired by a Halo LED 96 plate reader (Dynamica Scientific, UK).
as §3, with “The kinetic parameters were calculated using the Michaelis –Menten equation:3 v0=Vmax⋅[S]/Km+[S] where v0 is the initial enzymatic rate, Vmax is the rate at substrate saturation, Km is the Michaelis constant and [S] is the substrate concentration.” left out

Q89A-hSR [8] = molecular target: T3, Q89A-hSR; assay: as above; format: biochemical; settings: L-Ser racemisation by Q89A-hSR, 2 mM ATP vs absence of nucleotide
Method: as §5
as §3, with “The kinetic parameters were calculated using the Michaelis –Menten equation:3 v0=Vmax⋅[S]/Km+[S] where v0 is the initial enzymatic rate, Vmax is the rate at substrate saturation, Km is the Michaelis constant and [S] is the substrate concentration.” left out

hSR [9] = molecular target: T2, hSR; assay: as above; format: biochemical; settings: L-Ser racemisation by hSR, 2 mM ATP vs absence of nucleotide
Method: as §5
as §3, with “The kinetic parameters were calculated using the Michaelis –Menten equation:3 v0=Vmax⋅[S]/Km+[S] where v0 is the initial enzymatic rate, Vmax is the rate at substrate saturation, Km is the Michaelis constant and [S] is the substrate concentration.” left out

Q89M-hSR [10] = molecular target: T1, Q89M-hSR; assay: L-Ser dehydration (LDH-coupled assay); format: biochemical; settings: L-Ser dehydration by Q89M-hSR, 2 mM ATP vs absence of nucleotide
Method: as §2, §3

Q89A-hSR [11] = molecular target: T3, Q89A-hSR; assay: L-Ser dehydration (LDH-coupled assay); format: biochemical; settings: L-Ser dehydration by Q89A-hSR, 2 mM ATP vs absence of nucleotide
Method: as §2, §3

Q89M-hSR [12] = molecular target: T1, Q89M-hSR; assay: D-Ser dehydration (LDH-coupled assay); format: biochemical; settings: D-Ser dehydration by Q89M-hSR, 2 mM ATP vs absence of nucleotide
Method: as §2, §3

Q89A-hSR [13] = molecular target: T3, Q89A-hSR; assay: D-Ser dehydration (LDH-coupled assay); format: biochemical; settings: D-Ser dehydration by Q89A-hSR, ATP vs absence of nucleotide
Method: as §2, §3

hSR [14] = molecular target: T2, hSR; assay: L-Ser dehydration (LDH-coupled assay); format: biochemical; settings: hSR saturated with ATP
Method: as §2, §3

StTdcB = tested on: StTdcB; parameters: method as in PMID 17046821; settings: 5 mM AMP; cited from earlier work
[15] = 2 mM ATP, preliminary, data not shown

NCC(=O)O [Glycine]
fold higher affinity for Q89M-hSR (vs wt hSR) (Q89M-hSR [1]; Q89M-hSR vs hSR): more than 60 fold
Kd (Q89M-hSR [1]; Q89M-hSR, ligand 2 ATP (2 mM)): 28 ± 3 µM
Kd (Q89M-hSR [1]; Q89M-hSR, no ligand 2 (absence of ATP)): 110 ± 2 µM
Kd (hSR [2]; ligand 2 ATP): 470 ± 30 µM
Kd (hSR [2]; no ligand 2): 7000 ± 300 µM

N[C@H](CO)C(=O)O [D-Ser, D-serine]
kcat (hSR [3]; −ATP): 0.0283 ± 0.0017 s⁻¹

Nc1ncnc2c1ncn2[C@@H]1O[C@H](COP(=O)(O)OP(=O)(O)OP(=O)(O)O)[C@@H](O)[C@H]1O [ATP]
difference between KD and EC50 of ATP (Q89M-hSR [1]; Q89M-hSR, KD without substrate vs EC50 with 300 mM L-Ser): 6 fold
cooperativity of ATP binding (fluorimetric titration) (Q89M-hSR [1]; Q89M-hSR, absence of substrate): no cooperativity
fold increase in fluorescence emission intensity upon ATP binding (Q89M-hSR [1]; Q89M-hSR, excitation at 412 nm, absence of substrate): 1.65 fold
Kd (Q89M-hSR [1]; Q89M-hSR, ligand 2 Glycine (1 mM)): 48 ± 5 µM
Kd (Q89M-hSR [1]; Q89M-hSR, no ligand 2 (absence of substrate/glycine)): 154 ± 13 µM
Kd (hSR [2]; ligand 2 Glycine): 4.9 ± 0.6 µM
Hill coefficient of nucleotide binding (hSR [2]; human enzyme): about 2
Hill coefficient n, fluorimetric titration with ATP (hSR [2]; wt hSR, sigmoidal fit): 1.8 ± 0.1
EC50 (hSR [2]; wt hSR, sigmoidal fit, read-out: EC50 of ATP, fluorimetric titration): 257 ± 10 µM
fold increase of specific dehydratase activity (Q89M-hSR [4]; [15]): about 4 fold
effect on activity of further addition of ATP (Q89M-hSR [4]; ATP up to 10 mM): not increased
cooperativity of ATP binding (activity assay) (Q89M-hSR [4]; saturating 300 mM L-Ser): non-cooperative
EC50 (Q89M-hSR [4]; saturating 300 mM L-Ser, read-out: half-maximal activation (EC50) by ATP, L-Ser dehydratase activity): 21 ± 2 µM
fold increase of specific dehydratase activity (Q89A-hSR [5]; [15]): about 4 fold
effect on activity of further addition of ATP (Q89A-hSR [5]; ATP up to 10 mM): not increased
cooperativity of ATP binding (activity assay) (Q89A-hSR [5]; saturating 300 mM L-Ser): non-cooperative
fold increase of specific dehydratase activity (hSR [6]; 2 mM ATP): 7 fold
Hill coefficient n of ATP dependence of L-Ser dehydratase activity (hSR [6]; sigmoidal fit): 1.7 ± 0.2 and 1.7
EC50 (hSR [6]; sigmoidal fit, read-out: half maximal effective concentration of ATP (EC50), L-Ser dehydratase activity): 220 ± 10 µM
Increase (fold increase of catalytic efficiency kcat/Km in the presence of ATP) (Q89M-hSR [7]): 1.8 fold
Increase (fold increase of catalytic efficiency kcat/Km in the presence of ATP) (Q89A-hSR [8]): 1.6 fold
Increase (fold increase of catalytic efficiency kcat/Km in the presence of ATP) (hSR [9]): 2 fold and 1.9 fold
Increase (fold increase of catalytic efficiency kcat/Km in the presence of ATP) (Q89M-hSR [10]): 3.9 fold
Increase (fold increase of catalytic efficiency kcat/Km in the presence of ATP) (Q89A-hSR [11]): 3.3 fold
Increase (fold increase of catalytic efficiency kcat/Km in the presence of ATP) (Q89M-hSR [12]): 2.8 fold
Increase (fold increase of catalytic efficiency kcat/Km in the presence of ATP) (Q89A-hSR [13]): 2.3 fold
Increase (fold increase of catalytic efficiency kcat/Km in the presence of ATP) (hSR [3]; 2 mM ATP vs absence of nucleotide): 4.0 fold

N[C@@H](CO)C(=O)O [L-Ser, L-serine]
dehydratase activity efficiency relative to racemisation (hSR [14]): 15 fold

Nc1ncnc2c1ncn2[C@@H]1O[C@H](COP(=O)(O)O)[C@@H](O)[C@H]1O [AMP]
fold decrease in Km (StTdcB): 7.7 fold
fold increase in Vmax (StTdcB): 3 fold
